Test system: C. albicans ATCC 90028 biofilm
Test: Antifungal biofilm susceptibility testing (Minimum Biofilm Inhibitory Concentration, broth microdilution, CellTiter 96)
Format: cell-based, Candida albicans
Conditions: for Minimum Biofilm Inhibitory Concentration: lowest concentration giving 50% reduction of fungal growth, 48 h at 35° C., combination expressed as concentration of itraconazole
Method: Materials: Itraconazole EP Micronized (lot number C149307) and PCCA Formula #10342 (4 g of Itraconazole EP Micronized+37.574 g of Poloxamer composition) were provided by PCCA (Houston, Tex., USA) as powders. Itraconazole and PCCA Formula #10342 were prepared on the day of the assay. Fluconazole and amphotericin B were obtained as powders and stored at 4° C. […] Strain: Candida albicans isolate ATCC 90028 was obtained from American Type Culture Collection (Manassas, Va.), and used in the course of this study. Methods: In order to determine antimicrobial activity of itraconazole and the micronized poloxamer composition against biofilms of Candida albicans, an antifungal biofilm susceptibility testing was developed in conditions where a Minimum Biofilm Inhibitory Concentration (MBIC) of itraconazole within the micronized poloxamer composition, micronized poloxamer excipient, itraconazole, fluconazole and amphotericin B was measured for the C. albicans biofilm according to the conventional NCCLS M27-A broth microdilution method. The testing medium used for growing was RPMI 1640 (American Biorganics, Inc., […].) supplemented with L-glutamine (Sigma Aldrich®). Yeast inocula (100 μL of 1×10^6 cells/mL) were added to each well of 96-well microtiter plates (Corning) and incubated at 37° C. for 48 h. After biofilm formation, medium was aspirated and non-adherent cells were […] (PBS, Sigma Aldrich®). […] A series of sample-free wells and biofilm-free wells were also included to serve as positive and negative controls, respectively. […] Cell viability was determined by using a conventional CellTiter 96® Non-Radioactive Cell Proliferation Assay.

C[C@@H]1[C@H](O)[C@@H](C)/C=C/C=C/C=C/C=C/C=C/C=C/C=C/[C@H](O[C@@H]2O[C@H](C)[C@@H](O)[C@H](N)[C@@H]2O)C[C@@H]2O[C@](O)(C[C@@H](O)C[C@@H](O)[C@H](O)CC[C@@H](O)C[C@@H](O)CC(=O)O[C@H]1C)C[C@H](O)[C@H]2C(=O)O [Amphotericin B, amphotericin B]
MBIC: 0.5 µg/mL | Minimum Biofilm Inhibitory Concentration: 0.5 µg/mL

OC(Cn1cncn1)(Cn1cncn1)c1ccc(F)cc1F [Fluconazole, fluconazole]
MBIC: > 1024 µg/mL | Minimum Biofilm Inhibitory Concentration: >1,024 ug/mL

CCC(C)n1ncn(-c2ccc(N3CCN(c4ccc(OCC5COC(Cn6cncn6)(c6ccc(Cl)cc6Cl)O5)cc4)CC3)cc2)c1=O (centres unmarked) [Itraconazole, itraconazole]
Minimum Biofilm Inhibitory Concentration: 1024 µg/mL

— patent US10016500B2, “Poloxamer-based pharmaceutical compositions for treating wounds” (Professional Compounding Centers of America (PCCA), priority 2014, dated 2018)
